Results reported in PMC8197214, “8a, a New Acridine Antiproliferative and Pro-Apoptotic Agent Targeting HDAC1/DNMT1” (International Journal of Molecular Sciences, 2021).

Target: DNMT1 (Homo sapiens, UniProt P26358)
Test: biolayer interferometry (Octet K2), His-tagged DNMT1 on NTA biosensor
Format: binding

Sequence of DNMT1 (P26358 whole entry): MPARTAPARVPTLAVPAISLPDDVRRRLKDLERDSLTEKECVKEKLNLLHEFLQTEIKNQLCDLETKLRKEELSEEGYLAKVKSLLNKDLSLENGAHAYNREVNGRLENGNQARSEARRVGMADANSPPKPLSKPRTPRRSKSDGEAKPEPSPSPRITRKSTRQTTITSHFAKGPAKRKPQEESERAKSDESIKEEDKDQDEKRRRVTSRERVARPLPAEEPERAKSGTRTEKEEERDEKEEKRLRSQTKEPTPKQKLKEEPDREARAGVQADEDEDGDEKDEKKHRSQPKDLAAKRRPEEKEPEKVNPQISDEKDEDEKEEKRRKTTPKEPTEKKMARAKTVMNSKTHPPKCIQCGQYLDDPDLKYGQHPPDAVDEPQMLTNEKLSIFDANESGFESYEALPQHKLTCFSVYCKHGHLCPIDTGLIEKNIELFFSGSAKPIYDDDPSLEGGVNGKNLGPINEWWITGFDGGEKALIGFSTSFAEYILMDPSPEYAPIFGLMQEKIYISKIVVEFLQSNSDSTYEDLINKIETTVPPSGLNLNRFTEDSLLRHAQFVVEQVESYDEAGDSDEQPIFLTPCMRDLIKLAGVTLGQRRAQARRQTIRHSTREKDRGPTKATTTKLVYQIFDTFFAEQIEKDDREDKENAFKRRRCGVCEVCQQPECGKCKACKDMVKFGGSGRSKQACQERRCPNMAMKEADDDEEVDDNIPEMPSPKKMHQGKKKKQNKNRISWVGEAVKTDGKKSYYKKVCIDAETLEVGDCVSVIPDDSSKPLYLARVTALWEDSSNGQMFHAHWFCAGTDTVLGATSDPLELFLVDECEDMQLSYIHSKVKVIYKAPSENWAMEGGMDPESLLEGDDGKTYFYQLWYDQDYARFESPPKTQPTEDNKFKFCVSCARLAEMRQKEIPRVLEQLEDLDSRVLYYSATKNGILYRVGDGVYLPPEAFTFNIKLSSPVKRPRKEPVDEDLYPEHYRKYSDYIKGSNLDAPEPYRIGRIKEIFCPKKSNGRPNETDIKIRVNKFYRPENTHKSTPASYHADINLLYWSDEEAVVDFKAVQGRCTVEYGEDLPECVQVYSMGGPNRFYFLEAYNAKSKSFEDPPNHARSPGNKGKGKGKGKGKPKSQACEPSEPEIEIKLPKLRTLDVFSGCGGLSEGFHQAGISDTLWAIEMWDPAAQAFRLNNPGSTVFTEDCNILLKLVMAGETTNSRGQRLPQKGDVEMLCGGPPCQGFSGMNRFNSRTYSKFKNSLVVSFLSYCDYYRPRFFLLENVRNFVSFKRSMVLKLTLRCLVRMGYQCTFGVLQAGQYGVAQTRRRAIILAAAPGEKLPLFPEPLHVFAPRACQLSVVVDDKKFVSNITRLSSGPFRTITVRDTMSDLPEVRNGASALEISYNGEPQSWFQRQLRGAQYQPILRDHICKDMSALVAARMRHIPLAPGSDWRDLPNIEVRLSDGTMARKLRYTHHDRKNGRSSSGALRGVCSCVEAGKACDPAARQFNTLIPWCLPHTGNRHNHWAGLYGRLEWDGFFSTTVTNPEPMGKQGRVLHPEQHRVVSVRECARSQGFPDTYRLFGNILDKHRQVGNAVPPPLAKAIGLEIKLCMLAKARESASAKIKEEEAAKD

Cc1cccc2c(NCc3ccc(C(=O)Nc4ccccc4N)cc3)c3ccccc3nc12 [8a, N-(2-aminophenyl)-4-(((4-methylacridin-9-yl)amino)methyl) benzamide]
Kd: 1.9 nM
